The text below walks through data of US20230167073A1 (Teijin Pharma Limited, priority 2020, published 2023).

Where only a bound is given, the exact number is not on record here.

The assay concerns the target T1, Human TRPC6 (Homo sapiens, UniProt Q9Y210).
T1 construct: expressed in transfected cells
T1 sequence (Q9Y210 1-931): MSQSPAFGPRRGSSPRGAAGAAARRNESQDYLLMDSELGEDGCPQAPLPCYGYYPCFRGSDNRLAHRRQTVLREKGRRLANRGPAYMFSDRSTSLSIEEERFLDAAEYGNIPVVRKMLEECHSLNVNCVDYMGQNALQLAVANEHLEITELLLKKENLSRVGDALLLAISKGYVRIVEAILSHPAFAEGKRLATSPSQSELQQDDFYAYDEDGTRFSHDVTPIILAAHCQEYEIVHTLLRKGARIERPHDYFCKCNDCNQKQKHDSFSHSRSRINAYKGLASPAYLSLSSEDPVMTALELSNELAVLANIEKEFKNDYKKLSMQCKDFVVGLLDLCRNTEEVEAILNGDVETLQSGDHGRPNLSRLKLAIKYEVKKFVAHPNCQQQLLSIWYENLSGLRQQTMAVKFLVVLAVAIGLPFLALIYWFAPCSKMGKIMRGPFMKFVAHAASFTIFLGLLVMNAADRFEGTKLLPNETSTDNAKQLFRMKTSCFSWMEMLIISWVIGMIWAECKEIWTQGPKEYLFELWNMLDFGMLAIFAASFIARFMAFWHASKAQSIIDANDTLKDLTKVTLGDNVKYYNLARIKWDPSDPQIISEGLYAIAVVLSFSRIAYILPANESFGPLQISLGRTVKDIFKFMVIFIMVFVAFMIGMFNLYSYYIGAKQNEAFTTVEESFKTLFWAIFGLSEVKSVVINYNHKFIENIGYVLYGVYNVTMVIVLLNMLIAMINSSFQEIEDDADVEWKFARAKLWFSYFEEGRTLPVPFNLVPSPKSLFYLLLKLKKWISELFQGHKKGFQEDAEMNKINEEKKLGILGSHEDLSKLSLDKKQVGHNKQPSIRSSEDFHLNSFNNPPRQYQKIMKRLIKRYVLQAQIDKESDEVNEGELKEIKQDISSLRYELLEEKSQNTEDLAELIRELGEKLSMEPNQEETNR
Briefly: Evaluation of TRPC6 channel inhibitory activity (1), FLIPR Calcium 5 Assay Kit, OAG stimulation (Compound Nos. 1-1293). Type of assay: cell-based. To be noted: Human TRPC6 stably-expressing cells, OAG 30 μM, FLIPR Calcium 5 Assay Kit; read-out: Inhibitory activity (pIC50 class) (converted). The method in brief: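 Readout is pIC50 from four-parameter logistic fitting of inhibition of the OAG-evoked (30 μM final) fluorescence calcium signal. Human TRPC6 stable cells are dye-loaded with probenecid, and compound is applied 20 min ahead of agonist.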
Turning to `N#Cc1ccc(-c2ccc(CCN)cn2)c(Sc2cnnc(N3CCCCC3)c2)c1` [compound 1243, 4-[5-(2-aminoethyl)pyridin-2-yl]-3-(6-piperidin-1-ylpyridazin-4-yl)sulfanylbenzonitrile], the IC50 was < 10 nM.

As for `Cn1nc(C2CC2)cc1Oc1cc(C#N)ccc1-c1ccc(NC(=O)C2CCNCC2)cn1` [compound 781, N-[6-[4-cyano-2-(5-cyclopropyl-2-methylpyrazol-3-yl)oxyphenyl]pyridin-3-yl]piperidine-4-carboxamide], the IC50 was > 1000 nM.

In the case of `Cc1cc(Oc2cc(C#N)ccc2-c2ccc([C@@H](O)CN)cn2)cc(N2CCOCC2)n1` [compound 517, 4-[5-[(1R)-2-amino-1-hydroxyethyl]pyridin-2-yl]-3-(2-methyl-6-morpholin-4-ylpyridin-4-yl)oxybenzonitrile], the IC50 is < 10 nM.

As for `N#Cc1ccc(-c2ncc(CN)cn2)c(Oc2cnnc(C3CC3)c2)c1` [compound 713, 4-[5-(aminomethyl)pyrimidin-2-yl]-3-(6-cyclopropylpyridazin-4-yl)oxybenzonitrile], the IC50 was 10 to 1000 nM.

As to `Cc1cc(Oc2cc(C#N)ccc2-c2ccc(C(C)N)cn2)cc(N2CCOCC2)n1` (centres unmarked) [compound 398, 4-[5-(1-aminoethyl)pyridin-2-yl]-3-(2-methyl-6-morpholin-4-ylpyridin-4-yl)oxybenzonitrile], the IC50 was < 10 nM.

As for `Cc1nc(Oc2cc(C#N)ccc2-n2cc([C@@H](O)CN)cn2)cc(N2CCCCC2)n1` [Compound 233, 4-[4-[(1R)-2-amino-1-hydroxyethyl]pyrazol-1-yl]-3-(2-methyl-6-piperidin-1-ylpyrimidin-4-yl)oxybenzonitrile], the IC50 was < 10 nM.

As for `Cn1nc(N2CCOCC2)cc1C(=O)c1cc(C#N)ccc1-c1ncc(CN)cn1` [Compound No. 1028, 4-[5-(Aminomethyl)pyrimidin-2-yl]-3-(2-methyl-5-morpholin-4-ylpyrazole-3-carbonyl)benzonitrile], the IC50 was < 10 nM.

For the compound `Cc1nn(C(C)C)c(C)c1Oc1cc(C#N)ccc1-c1ncc(CCN)cn1` [compound 942, 4-[5-(2-aminoethyl)pyrimidin-2-yl]-3-(3,5-dimethyl-1-propan-2-ylpyrazol-4-yl)oxybenzonitrile], the IC50 was > 1000 nM.

Consider `Cc1nc(CN(C)C)cn1Cc1cc(C#N)ccc1-c1ncc(CCN)cn1` [compound 1178, 4-[5-(2-aminoethyl)pyrimidin-2-yl]-3-[[4-[(dimethylamino)methyl]-2-methylimidazol-1-yl]methyl]benzonitrile], for which the IC50 is > 1000 nM.

Consider `Cc1cc(Oc2cc(C#N)ccc2-c2ncc(CCN)cn2)cc(NC(C)C)n1` [compound 461, 4-[5-(2-aminoethyl)pyrimidin-2-yl]-3-[2-methyl-6-(propan-2-ylamino)pyridin-4-yl]oxybenzonitrile], for which the IC50 is < 10 nM.

With `Cn1nc(-c2ccccc2)cc1Oc1cc(C#N)ccc1-c1cnc(CCN)nc1` [compound 346, 4-[2-(2-aminoethyl)pyrimidin-5-yl]-3 (2-methyl-5-phenylpyrazol-3-yl)oxybenzonitrile], the IC50 was < 10 nM.

For the compound `Cn1nc(C2CC2)cc1Oc1cc(C#N)ccc1-c1ncc(CCN)cn1` [compound 317, 4-[5-(2-aminoethyl)pyrimidin-2-yl]-3-(5-cyclopropyl-2-methylpyrazol-3-yl)oxybenzonitrile], the IC50 is < 10 nM.

With `N#Cc1ccc(-c2ncc(CCN)cn2)c(Oc2ccc(N3CCCC3)nc2)c1` [compound 750, 4-[5-(2-aminoethyl)pyrimidin-2-yl]-3-(6-pyrrolidin-1-ylpyridin-3-yl)oxybenzonitrile], the IC50 is 10 to 1000 nM.

For the compound `N#Cc1ccc(-c2ccc(CCN)cn2)c(Cn2cnc(-c3ccccc3)c2)c1` [Compound No. 1131, 4-[5-(2-Aminoethyl)pyridin-2-yl]-3-[(4-phenylimidazol-1-yl)methyl]benzonitrile], the IC50 was < 10 nM.

Take `Cc1cc(Oc2cc(C#N)ccc2-n2cc(C(O)CN)cn2)cc(-c2ccccc2)n1` (centres unmarked) [Compound 226, 4-[4-(2-amino-1-hydroxyethyl)pyrazol-1-yl]-3-(2-methyl-6-phenylpyridin-4-yl)oxybenzonitrile]: the IC50 was < 10 nM.

For `Cc1cc(Oc2cc(C#N)ccc2-c2cnc(CCN)cn2)cc(N2CCOCC2)n1` [compound 388, 4-[5-(2-aminoethyl)pyrazin-2-yl]-3-(2-methyl-6-morpholin-4-ylpyridin-4-yl)oxybenzonitrile], the IC50 is < 10 nM.

As for `COC(c1cnc(-c2ccccc2)s1)c1cc(C#N)ccc1-c1ccc(CCN)cc1` (centres unmarked) [compound 1230, 4-[4-(2-aminoethyl)phenyl]-3-[methoxy-(2-phenyl-1,3-thiazol-5-yl)methyl]benzonitrile], the IC50 is > 1000 nM.

With `CN(C)c1cc(Oc2cc(C#N)ccc2-c2ncc([C@H](F)CN)cn2)n(C)n1` [compound 905, 4-[5-[(1S)-2-amino-1-fluoroethyl]pyrimidin-2-yl]-3-[5-(dimethylamino)-2-methylpyrazol-3-yl]oxybenzonitrile], the IC50 is < 10 nM.

With `Cc1cc(C(=O)c2cc(F)ccc2-c2ncc(CCN)cn2)cc(N2CCOCC2)n1` [compound 1097, [2-[5-(2-aminoethyl)pyrimidin-2-yl]-5-fluorophenyl]-(2-methyl-6-morpholin-4-ylpyridin-4-yl)methanone], the IC50 was < 10 nM.

Take `Cc1cc(Oc2cc(C#N)ccc2-c2ccc(CC(C)(C)N)cn2)cc(N2CCOCC2)n1` [compound 333, 4-[5-(2-amino-2-methylpropyl)pyridin-2-yl]-3-(2-methyl-6-morpholin-4-ylpyridin-4-yl)oxybenzonitrile]: the IC50 is < 10 nM.

With `Cc1nc(Oc2cc(C#N)ccc2-n2ncc3c2CCC(N)C3O)cc(-c2ccccc2)n1` (centres unmarked) [Compound 192, 4-(5-amino-4-hydroxy-4,5,6,7-tetrahydroindazol-1-yl)-3-(2-methyl-6-phenylpyrimidin-4-yl)oxybenzonitrile], the IC50 was 10 to 1000 nM.

As for `Cn1nc2c(c1Oc1cc(C#N)ccc1-c1ncc(CN)cn1)CCCC2` [compound 684, 4-[5-(aminomethyl)pyrimidin-2-yl]-3-[(2-methyl-4,5.6,7-tetrahydroindazol-3-yl)oxy]benzonitrile], the IC50 is > 1000 nM.

As to `N#Cc1ccc(-c2ccc(CCN)cc2)c(Oc2cnnc(O[C@H]3CCC[C@H]3O)c2)c1` [Compound 123, 4-[4-(2-aminoethyl)phenyl]-3-[6-[(1S,2R)-2-hydroxycyclopentyl]oxypyridazin-4-yl]oxybenzonitrile], the IC50 is 10 to 1000 nM.

For the compound `CCNc1cc(Oc2cc(C#N)ccc2-c2ncc(CN)cn2)nc(C)n1` [compound 631, 4-[5-(aminomethyl)pyrimidin-2-yl]-3-[6-(ethylamino)-2-methylpyrimidin-4-yl]oxybenzonitrile], the IC50 is 10 to 1000 nM.

As to `Cc1cccc(-c2cc(Oc3cc(C#N)ccc3-n3cc([C@H](O)CN)cn3)nc(C)n2)c1` [Compound 206, 4-[4-[(1S)-2-amino-1-hydroxyethyl]pyrazol-1-yl]-3-[2-methyl-6-(3-methylphenyl)pyrimidin-4-yl]oxybenzonitrile], the IC50 was < 10 nM.

Take `COC(=O)C(N)c1ccc(-c2ccc(C#N)cc2Oc2cc(C)nc(N3CCOCC3)c2)nc1` (centres unmarked) [compound 409, methyl 2-amino-2-[6-[4-cyano-2-(2-methyl-6-morpholin-4-ylpyridin-4-yl)oxyphenyl]pyridin-3-yl]acetate]: the IC50 is 10 to 1000 nM.
